Measurements reported in EPA's ToxRefDB 2.

What was measured:
[1] = system: rat; settings: Sub-acute repeat dose toxicity; sprague dawley; Injection; Subcutaneous; dose end: 5 day; group: systemic; systemic / in life observation / clinical signs / erythema + systemic / in life observation / clinical signs / scabbing + systemic / in life…
[2] = system: rat; settings: Subchronic oral toxicity in rodents, sprague dawley, Gavage/Intubation, dose end: 90 day, group: systemic
[3] = system: rabbit; settings: Sub-acute dermal toxicity, new zealand white, Topical, dose end: 3 week, group: systemic, systemic / pathology gross / lymph node / enlarged + systemic / pathology gross / skin / lesion(s) (nos) + systemic / pathology microscopic…
[4] = system: mouse; settings: Subchronic oral toxicity in rodents, b6c3f1, Gavage/Intubation, dose end: 13 week, group: systemic
[5] = system: rat; settings: Subchronic oral toxicity in rodents, fischer, Gavage/Intubation, dose end: 13 week, group: systemic
[6] = system: rat; settings: Subchronic oral toxicity in rodents, fischer, Gavage/Intubation, dose end: 13 week, group: systemic; remark: listed apart in the source
[7] = system: mouse; settings: Combined chronic toxicity/carcinogenicity; b6c3f1; Oral; Gavage/Intubation; dose end: 2 year; group: systemic; systemic / pathology microscopic / liver / cytomegaly + systemic / pathology microscopic / liver / hyperplasia + systemic / pathology …
[8] = system: rat; settings: Combined chronic toxicity/carcinogenicity, fischer, Oral, Gavage/Intubation, dose end: 2 year, group: systemic
[9] = system: mouse; settings: Subchronic oral toxicity in rodents, b6c3f1, Gavage/Intubation, dose end: 13 week, group: systemic; remark: listed apart in the source
[10] = system: rat; settings: Carcinogenicity, fischer, Oral, Water, dose end: 105 week, group: systemic
[11] = system: mouse; settings: Subchronic oral toxicity in rodents, b6c3f1, Water, dose end: 14 week
[12] = system: rat; settings: Developmental neurotoxicity study; sprague dawley; Oral; Feed; dose end: 90 PND; group: cannot be grouped; reproductive / offspring survival early / dead fetuses / dead fetuses + systemic / in life observation / body weight / offspring (pup) …
[13] = system: rat; settings: Carcinogenicity; fischer; Oral; Water; dose end: 104 week; group: systemic; systemic / in life observation / body weight / body weight
[14] = system: rat; settings: Subchronic oral toxicity in rodents, fischer, Water, dose end: 6 week, group: systemic
[15] = system: rat; settings: Chronic toxicity; fischer; Oral; Feed; dose end: 115 week; group: systemic; systemic / hematology / erythrocyte (rbc) count differential / erythrocyte (rbc) + systemic / hematology / hematocrit (hct) / hematocrit (…
[16] = system: mouse; settings: Carcinogenicity, b6c3f1, Oral, Water, dose end: 105 week, group: systemic
[17] = system: rat; settings: Subchronic oral toxicity in rodents, fischer, Water, dose end: 14 week, group: systemic
[18] = systemic / clinical chemistry / [other] / [other] + systemic / clinical chemistry / chloride / chloride + systemic / clinical chemistry / …
[19] = systemic / pathology gross / thymus / discolored
[20] = systemic / hematology / anemia / anemia - normocytic + systemic / hematology / erythrocyte (rbc) count differential / erythrocyte (rbc) + …
[21] = systemic / hematology / methemoglobin / methemoglobin
[22] = systemic / hematology / anemia / anemia - macrocytic + systemic / hematology / erythrocyte (rbc) count differential / erythrocyte (rbc) + …
[23] = systemic / in life observation / body weight / body weight + systemic / in life observation / clinical signs / labored respiration + …
[24] = systemic / in life observation / body weight / body weight + systemic / organ weight / kidney / absolute + systemic / organ weight / kidney…
[25] = systemic / pathology microscopic / kidney / pigmentation + systemic / pathology microscopic / nose / pigmentation
[26] = systemic / in life observation / body weight / body weight gain + systemic / in life observation / clinical signs / prostration + systemic…
[27] = systemic / in life observation / body weight / body weight gain + systemic / organ weight / liver / absolute + systemic / organ weight / …
[28] = systemic / in life observation / body weight / body weight + systemic / pathology microscopic / stomach / hyperplasia
[29] = systemic / in life observation / water consumption / water consumption
[30] = group: maternal, reproductive / reproductive performance / estrous cycle / length
[31] = group: systemic, systemic / in life observation / body weight / body weight + systemic / in life observation / body weight / body weight gain + systemic / …
[32] = systemic / hematology / methemoglobin / methemoglobin + systemic / in life observation / body weight / body weight gain + systemic / in life…
[33] = systemic / hematology / methemoglobin / methemoglobin + systemic / clinical chemistry / urea nitrogen / urea nitrogen

In the case of `COCc1nnc(-c2ccc[n+]([O-])c2)n1-c1c(Cl)c(Cl)cc2[nH]c(=O)c(=O)[nH]c12`, the LEL [1] is reported as 20 mg/kg/day, the LOAEL [1] is reported as > 20 mg/kg/day and the NEL [1] is reported as < 20 mg/kg/day. The NOAEL [1] was ≥ 20 mg/kg/day.

`Cc1ccc(O)c(C)c1` [2,4-Dimethylphenol] was tested, and the LOAEL [2, 18] was > 540 mg/kg/day, the NOAEL [2, 18] was ≥ 540 mg/kg/day and the LEL [2, 19] was 60 mg/kg/day. The NEL [2, 19] was < 60 mg/kg/day, the LEL [3] was 1200 mg/kg/day and the LOAEL [3] was > 2400 mg/kg/day. For the same compound, the NEL [3] was < 1200 mg/kg/day and the NOAEL [3] was ≥ 2400 mg/kg/day.

`Nc1ccccc1Cl` [2-Chloroaniline] was tested, and the LOAEL [4, 20] was 80 mg/kg/day, the NOAEL [4, 20] was 40 mg/kg/day and the LEL [4, 21] was 10 mg/kg/day. For the same compound, the NEL [4, 21] was < 10 mg/kg/day, the LOAEL [5, 22] was 80 mg/kg/day and the NOAEL [5, 22] was 40 mg/kg/day. For the same compound, the LEL [5, 21] was 10 mg/kg/day and the NEL [5, 21] was < 10 mg/kg/day.

With `COc1c(Cl)c(Cl)c(Cl)c(Cl)c1Cl` [Pentachloroanisole] the LOAEL [6, 23] was > 180 mg/kg/day, the NOAEL [6, 23] was ≥ 180 mg/kg/day and the LEL [6, 24] was 40 mg/kg/day. For the same compound, the NEL [6, 24] was < 40 mg/kg/day, the LEL [7] was 20 mg/kg/day and the LOAEL [7] was 20 mg/kg/day. For the same compound, the NEL [7] was < 20 mg/kg/day, the NOAEL [7] was < 20 mg/kg/day and the LOAEL ([8]; systemic / in life observation / body weight / body weight + systemic / pathology microscopic / adrenal gland / hyperplasia) was 40 mg/kg/day. For the same compound, the NOAEL ([8]; systemic / in life observation / body weight / body weight + systemic / pathology microscopic / adrenal gland / hyperplasia + systemic / …) was 20 mg/kg/day, the LEL [8, 25] was 10 mg/kg/day and the NEL [8, 25] was < 10 mg/kg/day. For the same compound, the LOAEL [9, 26] was > 180 mg/kg/day, the NOAEL [9, 26] was ≥ 180 mg/kg/day and the LEL [9, 27] was 40 mg/kg/day. For the same compound, the NEL [9, 27] was < 40 mg/kg/day.

Work on `O=N[O-].[Na+]` [Sodium nitrite] yielded an LOAEL [10, 28] of 130 mg/kg/day, an NOAEL ([10]; systemic / in life observation / body weight / body weight + systemic / pathology microscopic / stomach / hyperplasia + systemic / in life …) of 70 mg/kg/day and an LEL [10, 29] of 35 mg/kg/day. The NEL [10, 29] was < 35 mg/kg/day, the LEL [11, 30] was 445 mg/kg/day and the LOAEL [11, 30] was > 1230 mg/kg/day. For the same compound, the NEL [11, 30] was 240 mg/kg/day, the NOAEL [11, 30] was ≥ 1230 mg/kg/day and the LOAEL [11, 31] was 990 mg/kg/day. The NEL [11, 31] was 190 mg/kg/day, the NOAEL [11, 31] was 750 mg/kg/day and the LEL ([11]; group: systemic, systemic / in life observation / water consumption / water consumption) was 345 mg/kg/day. For the same compound, the LEL [12] was 12.5 mg/kg/day, the LOAEL [12] was > 25 mg/kg/day and the NEL [12] was 6.25 mg/kg/day. For the same compound, the NOAEL [12] was ≥ 25 mg/kg/day, the LEL [13] was 125 mg/kg/day and the LOAEL [13] was > 125 mg/kg/day. The NEL [13] was 62.5 mg/kg/day, the NOAEL [13] was ≥ 125 mg/kg/day and the LOAEL [14, 32] was > 500 mg/kg/day. For the same compound, the NEL [14, 32] was 125 mg/kg/day, the NOAEL [14, 32] was ≥ 500 mg/kg/day and the LEL ([14]; systemic / hematology / methemoglobin / methemoglobin + systemic / in life observation / mortality / mortality + systemic / pathology gross…) was 250 mg/kg/day. For the same compound, the LEL [15] was 100 mg/kg/day, the LOAEL [15] was > 250 mg/kg/day and the NEL [15] was < 100 mg/kg/day. For the same compound, the NOAEL [15] was ≥ 250 mg/kg/day, the LOAEL [16, 28] was 165 mg/kg/day and the NOAEL ([16]; systemic / in life observation / body weight / body weight + systemic / pathology microscopic / stomach / hyperplasia + systemic / pathology…) was 90 mg/kg/day. For the same compound, the LEL [16, 29] was 45 mg/kg/day, the NEL [16, 29] was < 45 mg/kg/day and the LOAEL [17, 21] was 30 mg/kg/day. For the same compound, the NOAEL [17, 21] was < 30 mg/kg/day, the LEL [17, 33] was 30 mg/kg/day and the NEL [17, 33] was < 30 mg/kg/day.
